The source of these data is US20060293307A1, “Oxazolidinone derivatives as antimicrobials” (priority 2002, published 2006).

Assay [1] has as its system M. tuberculosis PC. Kind of assay: MIC against M. tuberculosis strains, agar dilution. The assay is classed as cell-based, Mycobacterium tuberculosis. Conditions: S. No. 17 Mt-, Middle Brook 7H10 + OADC, 37° C., 14-21 days. For orientation: Agar dilution tests growth on a series of plates holding different concentrations.
A further assay concerns M. tuberculosis 50. The assay is described as follows: MIC against M. tuberculosis strains, agar dilution. The assay is classed as cell-based, Mycobacterium tuberculosis. To be noted: S. No. 12 Mt-, Middle Brook 7H10 + OADC, 37° C., 14-21 days.
A further assay relates to S. warnerii ST360. The assay is described as follows: MIC, agar incorporation method. Format: cell-based.
The subject of another assay is M. avium ATCC 49601. Kind of assay: MIC against MAC strains, agar dilution. Conditions: S. No. 01 Ma-1, M. avium ATCC 49601, Middle Brook 7H10 + OADC, 37° C., 14-21 days. The assay is classed as cell-based, Mycobacterium avium.
A further assay has as its system H. influenzae 1381. Kind of assay: MIC against Haemophilus strains. The assay is classed as cell-based. Conditions: Haemophilus influenzae; s. No. 7, H. influenzae 1381; read-out: MIC.
Another assay concerns M. tuberculosis M-164. Kind of assay: MIC against M. tuberculosis strains, agar dilution. The assay is classed as cell-based, Mycobacterium tuberculosis. Conditions: Middle Brook 7H10 + OADC, 37° C., 14-21 days.
Assay [2] concerns M. avium intracellulare 356/97. Kind of assay: MIC against MAC strains, agar dilution. Conditions: S. No. 10 Mai-1, M. avium intracellulare 356/97, Middle Brook 7H10 + OADC, 37° C., 14-21 days. Format: cell-based.
Another assay deals with M. tuberculosis SGPGI. Kind of assay: MIC against M. tuberculosis strains, agar dilution. The assay is classed as cell-based, Mycobacterium tuberculosis. Conditions: S. No. 06 Mt-, Middle Brook 7H10 + OADC, 37° C., 14-21 days.
For assay [3], the system named is M. tuberculosis PC. Kind of assay: MIC against M. tuberculosis strains, agar dilution. The assay is classed as cell-based, Mycobacterium tuberculosis. Conditions: S. No. 19 Mt-, Middle Brook 7H10 + OADC, 37° C., 14-21 days.
Assay [4] relates to M. avium intracellulare 1211/96. The assay is described as follows: MIC against MAC strains, agar dilution. Format: cell-based. Conditions: S. No. 13 Mai-5, M. avium intracellulare 1211/96, Middle Brook 7H10 + OADC, 37° C., 14-21 days.
For the next assay, the system named is M. tuberculosis M-149. Kind of assay: MIC against M. tuberculosis strains, agar dilution. To be noted: Middle Brook 7H10 + OADC, 37° C., 14-21 days. The assay is classed as cell-based, Mycobacterium tuberculosis.
In a further assay the test system is M. intracellulare F21/12. The assay is described as follows: MIC against MAC strains, agar dilution. The assay is classed as cell-based. Conditions: S. No. 08 Mi-3, M. intracellulare F21/12, Middle Brook 7H10 + OADC, 37° C., 14-21 days.
For another assay, the system named is H. influenzae 474. The assay is described as follows: MIC against Haemophilus strains. The assay is classed as cell-based. To be noted: Haemophilus influenzae; s. No. 11, H. influenzae 474; read-out: MIC.
The next assay deals with H. influenzae 1745. Kind of assay: MIC against Haemophilus strains. Format: cell-based. Conditions: Haemophilus influenzae; s. No. 9, H. influenzae 1745; read-out: MIC.
For another assay, the system named is H. influenzae R. The assay is described as follows: MIC against Haemophilus strains. Format: cell-based. To be noted: Haemophilus influenzae; s. No. 4, H. influenzae R; read-out: MIC.
The next assay concerns H. influenzae ATCC 49247. The assay is described as follows: MIC against Haemophilus strains. To be noted: Haemophilus influenzae, ATCC49247; s. No. 2, H. influenzae ATCC 49247; read-out: MIC. The assay is classed as cell-based.
The next assay has as its system M. tuberculosis M-168. Kind of assay: MIC against M. tuberculosis strains, agar dilution. Format: cell-based, Mycobacterium tuberculosis. Conditions: Middle Brook 7H10 + OADC, 37° C., 14-21 days.
Assay [5] relates to M. avium intracellulare 559/97. The assay is described as follows: MIC against MAC strains, agar dilution. The assay is classed as cell-based. Conditions: S. No. 15 Mai-7, M. avium intracellulare 559/97, Middle Brook 7H10 + OADC, 37° C., 14-21 days.
Assay [6] concerns M. avium intracellulare 540/96. Kind of assay: MIC against MAC strains, agar dilution. The assay is classed as cell-based. Conditions: S. No. 12 Mai-4, M. avium intracellulare 540/96, Middle Brook 7H10 + OADC, 37° C., 14-21 days.
The subject of the next assay is M. tuberculosis PC 4782. Kind of assay: MIC against M. tuberculosis strains, agar dilution. The assay is classed as cell-based, Mycobacterium tuberculosis. Conditions: Middle Brook 7H10 + OADC, 37° C., 14-21 days.
The subject of a further assay is M. tuberculosis PC 4793. The assay is described as follows: MIC against M. tuberculosis strains, agar dilution. Format: cell-based, Mycobacterium tuberculosis. To be noted: Middle Brook 7H10 + OADC, 37° C., 14-21 days.
A further assay relates to H. influenzae βIac. Kind of assay: MIC against Haemophilus strains. Conditions: Haemophilus influenzae; s. No. 3, H. influenzae βIac; read-out: MIC. The assay is classed as cell-based.
Another assay has as its system E. faecalis 5B (VRE). Kind of assay: MIC, agar incorporation method. The assay is classed as cell-based. To be noted: Enterococcus faecalis; S. No. 19, E. faecalis 5B (VRE); read-out: MIC.
In the next assay the test system is M avium ATCC 700897. The assay is described as follows: MIC against MAC strains, agar dilution. Format: cell-based, Mycobacterium avium. Conditions: S. No. 05 Ma-6, M avium ATCC 700897, Middle Brook 7H10 + OADC, 37° C., 14-21 days.
In the next assay the test system is H. influenzae P318. The assay is described as follows: MIC against Haemophilus strains. The assay is classed as cell-based. To be noted: Haemophilus influenzae; s. No. 10, H. influenzae P318; read-out: MIC.
Assay [7] has as its system M. tuberculosis PC. Kind of assay: MIC against M. tuberculosis strains, agar dilution. Conditions: S. No. 20 Mt-, Middle Brook 7H10 + OADC, 37° C., 14-21 days. Format: cell-based, Mycobacterium tuberculosis.
Setting [8] is: Mycobacterium tuberculosis, read-out: MIC.
The mark [9] stands for this setting: Mycobacterium avium, read-out: MIC.

In brackets after ≈: the same amount, converted by molar mass. Read-outs that look alike come from different tables or passages of the source.

In the case of `CC(=O)NC[C@H]1CN(c2ccc(N3CCN(c4ccc([N+](=O)[O-])s4)CC3)c(F)c2)C(=O)O1` [Compound No. 1, (S)—N-[[3-[3-Fluoro-4-[4-(5-nitro-2-thienyl)-1-piperazinyl]phenyl]-2-oxo-5-oxazolidinyl]methyl]acetamide], the MIC was 0.25 µg/mL with M. tuberculosis PC [1] (setting [8]); 2 µg/mL in the assay on M. tuberculosis 50 (setting [8]); 0.125 µg/mL (≈ 0.27 µM) in the assay on S. warnerii ST360; less than 0.125 µg/mL in the assay on M. avium ATCC 49601 (Mycobacterium avium, ATCC49601, read-out: MIC); 8 µg/mL (≈ 17.3 µM) with H. influenzae 1381; 0.5 µg/mL with M. tuberculosis M-164 (Mycobacterium tuberculosis, M164, S. No. 10 Mt-, read-out: MIC). In addition, the MIC is 0.25 µg/mL in assay [2] (setting [9]); 1 µg/mL with M. tuberculosis SGPGI (setting [8]); not above 0.125 µg/mL in the assay with M. tuberculosis PC [3] (setting [8]); 8 µg/mL in [4] (setting [9]); 0.25 µg/mL in the assay on M. tuberculosis M-149 (Mycobacterium tuberculosis, M149, S. No. 15 Mt-, read-out: MIC); 0.25 µg/mL in the assay on M. intracellulare F21/12 (Mycobacterium intracellulare, read-out: MIC). Also, the MIC in the assay with H. influenzae 474 was 16 µg/mL (≈ 34.5 µM); with H. influenzae 1745 it was 16 µg/mL (≈ 34.5 µM); in the assay with H. influenzae R, 8 µg/mL (≈ 17.3 µM); with H. influenzae ATCC 49247, 8 µg/mL (≈ 17.3 µM); in the assay on M. tuberculosis M-168 (Mycobacterium tuberculosis, M168, S. No. 09 Mt-, read-out: MIC), 0.25 µg/mL; in assay [5] (setting [9]), 0.25 µg/mL. Besides, the MIC in [6] (setting [9]) is 1 µg/mL; in the assay on M. tuberculosis PC 4782 (Mycobacterium tuberculosis, PC4782, S. No. 21 Mt-, read-out: MIC), 0.125 µg/mL; in the assay on M. tuberculosis PC 4793 (Mycobacterium tuberculosis, PC4793, S. No. 23 Mt-, read-out: MIC) it was more than 32 µg/mL; in the assay with H. influenzae βIac it was 8 µg/mL (≈ 17.3 µM); in the assay on E. faecalis 5B (VRE), 0.25 µg/mL (≈ 0.539 µM); with M avium ATCC 700897 (Mycobacterium avium, ATCC700897, read-out: MIC), less than 0.123 µg/mL. The MIC turned out to be 16 µg/mL (≈ 34.5 µM) in the assay on H. influenzae P318 and 0.25 µg/mL in the assay with M. tuberculosis PC [7] (setting [8]).
Turning to `C[C@@H]1CN(c2c(F)c(N)c3c(=O)c(C(=O)O)cn(C4CC4)c3c2F)C[C@H](C)N1` [SPAR], the MIC in the assay with M. tuberculosis PC [1] turned out to be 8.0 µg/mL; with M. tuberculosis 50, 4.0 µg/mL; in the assay with M. avium ATCC 49601 it was 0.5 µg/mL; in the assay on M. tuberculosis M-164 (S. No. 10 Mt-) it was 1.0 µg/mL; in [2], 2.0 µg/mL; in the assay with M. tuberculosis SGPGI, 4.0 µg/mL. Further, the MIC result in the assay on M. tuberculosis PC [3] was “≦0.125 μg/ml”; in [4] it was 4.0 µg/mL; in the assay with M. tuberculosis M-149 (S. No. 15 Mt-) it was 2.0 µg/mL; with M. intracellulare F21/12 it was 0.125 µg/mL; with M. tuberculosis M-168 (S. No. 09 Mt-), 2.0 µg/mL; in [5] it was 2.0 µg/mL. Moreover, the MIC was 4.0 µg/mL in [6]; “≦0.125 μg/ml” with M. tuberculosis PC 4782 (S. No. 21 Mt-); 4.0 µg/mL in the assay on M. tuberculosis PC 4793 (S. No. 23 Mt-); 2.0 µg/mL with M avium ATCC 700897; 8.0 µg/mL in the assay with M. tuberculosis PC [7].
